Among the test systems are M19-MEL; DMS-114; LXFL 529; DLD-1; HOP-18; SNB-78; DMS-273; XF498.
Holding throughout (assay): NCI tumour cell line growth inhibition, 48 h

The structures appear in SMILES notation.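 Step 1: Grow cells in 96-well plates. Step 2: Expose to compound for 48 hours at 5 concentrations. Step 3: Interpolate endpoints linearly; if unreached, use highest concentration. At the GI50, growth is halved.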 Activity calls are given as the source filed them. Rule as the data show it: active = GI50 up to about 1.1 µM and inactive = higher. A value given as a limit tells only on which side of the number the result lay.

Consider `CC#CC#C/C=C1\C=CC2(OC=CC2O)O1` (stereo not drawn), for which the GI50 in the assay with M19-MEL is 15.3 µM (inactive); in the assay on DMS-114, 7.38 µM (inactive); in the assay with LXFL 529 it was 6.24 µM (inactive); with DLD-1, 8.93 µM (inactive); with HOP-18, 4.79 µM (inactive); in the assay on SNB-78, 4.93 µM (inactive). The results for the GI50 with DMS-273 and in the assay on XF498 were > 23.3 µM (inactive) and 9.4 µM (inactive), respectively.
With `SCc1ccc(-c2ccc(CS)cc2)cc1`, the GI50 with M19-MEL is 18.6 µM (inactive); in the assay on DMS-114, 12.5 µM (inactive); in the assay on LXFL 529 it was 14.4 µM (inactive); in the assay with DLD-1, 17 µM (inactive); in the assay on HOP-18, 16.4 µM (inactive); with SNB-78 it was 18.3 µM (inactive). For the same compound, the GI50 in the assay on DMS-273 is 24.2 µM (inactive); with XF498, 20.6 µM (inactive).
For the compound `Cc1cc2c3ccccc3n3c2c2c1OC1(C)CCC(C2C1)C3(C)C` (stereo not drawn), the GI50 in the assay with M19-MEL, in the assay with DMS-114, with LXFL 529, in the assay with DLD-1, in the assay with SNB-78 and with DMS-273 was > 25 µM (inactive) in each case. Also, the GI50 in the assay on XF498 was > 25 µM (inactive).
Take `Cc1ccc(S(=O)(=O)Nc2ccccc2C(C)(C)C)cc1`: the GI50 in the assay on M19-MEL is 25.6 µM (inactive); with DMS-114 it was 17.9 µM (inactive); in the assay with LXFL 529 it was 24.9 µM (inactive); in the assay on DLD-1 it was 30.8 µM (inactive); in the assay on SNB-78, 31.6 µM (inactive); in the assay on DMS-273 it was 17.3 µM (inactive). In the assay on XF498, the GI50 is 22 µM (inactive).
In the case of `C(=C1/CCCCC([n+]2ccccc2)=N1)/c1ccccc1`, the GI50 in the assay with M19-MEL, with DMS-114, in the assay with LXFL 529, with DLD-1, in the assay with HOP-18 and with SNB-78 was > 100 µM (inactive) in each case. Further, the GI50 in the assay on DMS-273 is > 100 µM (inactive).
In the case of `O=C1OC(=O)C2C1C1(c3ccccc3)OC2(c2ccccc2)c2c(Br)c(Br)c(Br)c(Br)c21` (stereo not drawn), the GI50 in the assay with M19-MEL was > 100 µM (inactive); in the assay with DMS-114, > 100 µM (inactive); in the assay on LXFL 529 it was > 100 µM (inactive); with DLD-1, > 100 µM (inactive); with HOP-18 it was > 100 µM (inactive); in the assay with SNB-78, 83.8 µM (inactive). Moreover, the GI50 in the assay with DMS-273 and with XF498 was > 100 µM (inactive) in each case.
For `CCOCc1cc(=O)c2c(OC)cc3c(c2o1)CCC(C)(C)O3`, the GI50 in the assay with M19-MEL, with LXFL 529, in the assay with DLD-1, in the assay on HOP-18, with SNB-78 and with XF498 was > 100 µM (inactive) each time.
As for `O=[N+]([O-])c1ccc(C[P+](c2ccccc2)(c2ccccc2)c2ccccc2)cc1`, the GI50 was 24.2 µM (inactive) in the assay with M19-MEL; 23.2 µM (inactive) with DMS-114; 12.5 µM (inactive) in the assay with LXFL 529; 50.4 µM (inactive) with DLD-1; 79.8 µM (inactive) in the assay on HOP-18; 37.8 µM (inactive) in the assay on DMS-273. Also, the GI50 with XF498 is < 0.01 µM (active).
`O=C1c2ccccc2C(=O)c2c(O)c(NCCNCCO)cc(O)c21`: the GI50 in the assay on M19-MEL was 3.62 µM (inactive); in the assay on DMS-114, 4.19 µM (inactive); in the assay with LXFL 529, 5.96 µM (inactive); with DLD-1, 3.13 µM (inactive); in the assay with HOP-18, 6.49 µM (inactive); in the assay on SNB-78, 5.21 µM (inactive). Further, the GI50 was 3.81 µM (inactive) in the assay on DMS-273 and 6.95 µM (inactive) in the assay on XF498.
For `Nc1cc(=O)n(-c2ccccc2)c(=S)n1-c1ccccc1`, the GI50 in the assay with M19-MEL, in the assay with DMS-114, in the assay with LXFL 529, with DLD-1, in the assay on SNB-78 and in the assay on DMS-273 was > 100 µM (inactive) each time. Also, the GI50 with XF498 is > 100 µM (inactive).
`COc1ccc2nccc(C3=CCC4CCN(C(=O)c5ccccc5)C3C4)c2c1` (stereo not drawn): the GI50 with M19-MEL, with DMS-114, in the assay with LXFL 529, in the assay with DLD-1, in the assay with SNB-78 and with DMS-273 was > 100 µM (inactive) in each case. Also, the GI50 in the assay on XF498 is 92 µM (inactive).
With `O=C(NCCCCCCNC(=O)n1cc(F)c(=O)[nH]c1=O)NCCCOCCOCCOCCOCCOCCOCCOCCOCCOCCOCCOCCOCCOCCOCCOCCOCCOCCOCCOCCOCCOCCCNC(=O)C(O)C(O)C(OC1OC(CO)C(O)C(O)C1O)C(O)CO` (stereo not drawn), the GI50 was 64.3 µM (inactive) in the assay on M19-MEL; > 100 µM (inactive) in the assay on DMS-114; 22.6 µM (inactive) in the assay with DLD-1; > 37 µM (inactive) in the assay on HOP-18; > 100 µM (inactive) in the assay on SNB-78; 19.8 µM (inactive) with DMS-273. Moreover, in the assay with XF498, the GI50 was > 100 µM (inactive).
Regarding `CC(=O)O/N=C(/C)c1ccccc1O`, the GI50 in the assay on M19-MEL, in the assay on DMS-114, in the assay with LXFL 529, in the assay with DLD-1, in the assay on HOP-18 and in the assay on SNB-78 was > 100 µM (inactive) in each case. For the same compound, the GI50 in the assay with DMS-273 and in the assay with XF498 was > 100 µM (inactive) each time.
On to `COCc1c(CO)cnc(C)c1OC1OC(CO)C(O)C(O)C1O` (stereo not drawn), for which the GI50 in the assay with M19-MEL, in the assay on DMS-114, in the assay on LXFL 529, in the assay on DLD-1, in the assay on DMS-273 and in the assay with XF498 was > 100 µM (inactive) each time.
For `C/C(CN1C(=O)c2ccccc2C1=O)=N\NS(=O)(=O)c1ccc2ccccc2c1`, the GI50 with M19-MEL, in the assay on DMS-114, in the assay with LXFL 529, in the assay with DLD-1, with HOP-18 and in the assay on SNB-78 was > 100 µM (inactive) throughout. For the same compound, the GI50 in the assay with DMS-273 is > 100 µM (inactive).
`C=CC[C@H](C[C@H](C[C@H](C[C@H](C[C@H](C[C@H](C[C@H](C[C@H](C[C@H](C[C@H](CCCCC)OC)OC)OC)OC)OC)OC)OC)OC)OC)OC`: the GI50 is > 100 µM (inactive) in the assay on M19-MEL; 52.6 µM (inactive) in the assay on DMS-114; > 100 µM (inactive) in the assay with DLD-1; > 100 µM (inactive) with HOP-18; > 100 µM (inactive) in the assay on SNB-78; > 100 µM (inactive) in the assay on DMS-273. Besides, the GI50 with XF498 was 41.6 µM (inactive).
For the compound `Cc1ccc(-n2c3nc(=O)n(C)c(=O)c-3nc3ccccc32)cc1`, the GI50 was 13.7 µM (inactive) in the assay with DMS-114; 36 µM (inactive) with LXFL 529; 27.6 µM (inactive) with DLD-1; 14.7 µM (inactive) with HOP-18; 30.5 µM (inactive) in the assay with SNB-78; 4.3 µM (inactive) in the assay with DMS-273. In addition, the GI50 with XF498 is 25.4 µM (inactive).
For the compound `COc1c(O)c2c(c3cc(C(=O)N4CCc5c4c(O)c(OC)c4[nH]c(C(=O)N6CC7CC78C6=CC(=O)c6[nH]cc(C)c68)cc54)[nH]c13)CCN2C(N)=O` (stereo not drawn) [CC-1065], the GI50 is 0.0048 µM (active) with M19-MEL; 0.0025 µM (active) with DMS-114; 0.00834 µM (active) with LXFL 529; 0.00103 µM (active) in the assay with DLD-1; 0.00404 µM (active) in the assay on SNB-78; 0.00142 µM (active) in the assay on DMS-273.
